Like-named read-outs stand apart in the source and are kept apart here. *1 amine or outer side, *2 acyl side, *3 side chain or, on linkers, in order; H or OH if unused. Where a SMILES comes first, the peptide text is derived from it. Bridges are numbered along the chain shown (N, C = ends). Roman numbers before positions name the chains, in order. [ ]: non-standard residue; d: D form. Actinocin(9to1) = Cc1c2oc3c(C)ccc(C(=O)[*:1])c3nc-2c(C(=O)[*:2])c(N)c1=O; NMeV = CN[C@H](C(=O)O)C(C)C; Sar = CNCC(=O)O
What was measured:
Type in all cases: cell-based, human
[1] = test system: HIF-1α–NanoLuc HCT116 cells; test: Viability (Luc): CellTiter-Glo counter screen in HIF-1α–NanoLuc cells; details: for Viability (Luc) confirmatory IC50: Table S7, 1% O2, 18 h; for IC50: Homo sapiens, HCT-116, Table S7, confirmatory screen, 1% O2, 18 h
HIF-1α–NanoLuc = HIF-1α–NanoLuc reporter gene assay (qHTS primary and confirmatory screens); details: for IC50 / Emax: Homo sapiens
HRE–bla ME-180 cells = test: Viability (BLA): CellTiter-Glo counter screen in HRE–bla cells; details: for IC50: Homo sapiens, ME-180, Table S7, confirmatory screen, 1% O2, 18 h; for Viability (BLA) confirmatory IC50: Table S7, 1% O2, 18 h
[2] = test system: hypoxia response element-beta-lactamase (HRE–bla); test: HRE-bla reporter gene assay in ME-180 cells; details: Table S7, confirmatory screen; for Emax / IC50: Homo sapiens, ME-180; for Emax: read-out: HRE–bla confirmatory Efficacy; for IC50: read-out: HRE–bla confirmatory IC50
[3] = 18 h, read-out: IC50 (primary screen, HIF-1α–NanoLuc assay)
[4] = read-out: Efficacy (primary screen, HIF-1α–NanoLuc assay)
[5] = read-out: HIF-1α–NanoLuc confirmatory Efficacy
[6] = read-out: HIF-1α–NanoLuc confirmatory IC50
[7] = read-out: HIF-1α–NanoLuc primary Efficacy
[8] = Table S7, confirmatory screen, read-out: HIF-1α–NanoLuc confirmatory Efficacy
[9] = Table S7, confirmatory screen, read-out: HIF-1α–NanoLuc confirmatory IC50
[10] = Table S7, primary screen, read-out: HIF-1α–NanoLuc primary Efficacy
[11] = Table S7, primary screen, read-out: HIF-1α–NanoLuc primary IC50
[12] = Table S2, primary screen, read-out: Pathway inhibitors (primary screen) HIF-1α–NanoLuc Activity Efficacy
[13] = Table S2, primary screen, read-out: Pathway inhibitors (primary screen) HIF-1α–NanoLuc Activity IC50
[14] = Table S2, validation, read-out: Pathway inhibitors (validation) HIF-1α–NanoLuc Activity Efficacy
[15] = Table S2, validation, read-out: Pathway inhibitors (validation) HIF-1α–NanoLuc Activity IC50

Structure (SMILES)	IC50 [2] [µM]	IC50 (HIF-1α–NanoLuc; [9]) [µM]	IC50 (HIF-1α–NanoLuc; [11]) [µM]	IC50 (HIF-1α–NanoLuc; [15]) [µM]	Viability (Luc) confirmatory IC50 [1]	IC50 (HRE–bla ME-180 cells) [µM]	Emax [2] [%]	Emax (HIF-1α–NanoLuc; [8]) [%]	Emax (HIF-1α–NanoLuc; [10]) [%]	Viability (BLA) confirmatory IC50 (HRE–bla ME-180 cells)	Emax (HIF-1α–NanoLuc; [14]) [%]	further results
Cc1c2oc3c(C)ccc(C(=O)N[C@@H]4C(=O)N[C@H](C(C)C)C(=O)N5CCC[C@H]5C(=O)N(C)CC(=O)N(C)[C@@H](C(C)C)C(=O)O[C@@H]4C)c3nc-2c(C(=O)N[C@@H]2C(=O)N[C@H](C(C)C)C(=O)N3CCC[C@H]3C(=O)N(C)CC(=O)N(C)[C@@H](C(C)C)C(=O)O[C@@H]2C)c(N)c1=O [Actinomycin D] (I: T[dV]P[Sar][NMeV] / II: T[dV]P[Sar][NMeV]; ester I:1-I:C, II:1-II:C; linker I:N-II:N via Actinocin(9to1))	0.02				Inactive	1.52 ± 2.33	78 ± 5					Effect on HIF-1α–NanoLuc level / luciferase activity, in words (HIF-1α–NanoLuc): caused reduced NanoLuc activity; IC50 (HIF-1α–NanoLuc; [3]): 0.04 µM; Emax (HIF-1α–NanoLuc; [4]): 99%; Emax (HIF-1α–NanoLuc; [5]): 87 ± 4%; IC50 (HIF-1α–NanoLuc; [6]): 0.03 ± 0.01 µM; Emax (HIF-1α–NanoLuc; [7]): 99%
CCCCC(CC)CNC(=N)NC(=N)NCCCCCCNC(=N)NC(=N)NCC(CC)CCCC (centres unmarked) [Alexidine]	8.78 ± 1.12	9.35	10.6			8.83 ± 1.59	87 ± 18	107 ± 2	126			IC50 [1]: 18.9 ± 3.53 µM
Cn1cnc([N+](=O)[O-])c1Sc1ncnc2nc[nH]c12 [Azathioprine]		8.07 ± 1.82	3.42					50 ± 11	67	Inactive		IC50 [1]: 2.11 ± 0.53 µM; HRE–bla confirmatory IC50 [2]: Inactive
C[C@@H]1C[C@@H]([C@H](O)CC2CC(=O)NC(=O)C2)C(=O)[C@@H](C)C1 [Cycloheximide]	1.06 ± 0.12				Inactive	8.34 ± 4.61	92 ± 2					Effect on HIF-1α–NanoLuc level / luciferase activity, in words (HIF-1α–NanoLuc): showed reduced protein turnover and decreased luciferase signal; IC50 (HIF-1α–NanoLuc; [3]): 0.24 µM; Emax (HIF-1α–NanoLuc; [4]): 92%; Emax (HIF-1α–NanoLuc; [5]): 104 ± 5%; IC50 (HIF-1α–NanoLuc; [6]): 0.53 µM; Emax (HIF-1α–NanoLuc; [7]): 92%

Continued, in another order:

IC50 [2] [µM]	IC50 (HIF-1α–NanoLuc; [9]) [µM]	IC50 (HIF-1α–NanoLuc; [11]) [µM]	IC50 (HIF-1α–NanoLuc; [15]) [µM]	Structure (SMILES)	Viability (Luc) confirmatory IC50 [1]	IC50 (HRE–bla ME-180 cells) [µM]	Emax [2] [%]	Emax (HIF-1α–NanoLuc; [8]) [%]	Emax (HIF-1α–NanoLuc; [10]) [%]	Viability (BLA) confirmatory IC50 (HRE–bla ME-180 cells)	Emax (HIF-1α–NanoLuc; [14]) [%]	further results
0.84 ± 0.1	3.91 ± 0.7	0.84		CC(=O)Oc1ccc(C(c2ccc(OC(C)=O)cc2)c2ccccn2)cc1 [Bisacodyl]	Inactive	0.69 ± 0.05	93 ± 4	26 ± 6	110			
4.67 ± 7.5	28.8 ± 10.7		24.8 ± 10.7	C=CC(=O)Nc1cc2c(Nc3ccc(F)c(Cl)c3)ncnc2cc1OCCCN1CCOCC1 [Canertinib]	Inactive	21.2 ± 2.44	37 ± 22	88 ± 20	50		88 ± 20	Emax (HIF-1α–NanoLuc; [12]): 50%; IC50 (HIF-1α–NanoLuc; [13]): 2.37 µM
6.8 ± 1.55	14.3 ± 0.93	7.5		O=C(Nc1ccc(Cl)cc1)Nc1ccc(Cl)c(C(F)(F)F)c1 [Cloflucarban]	Inactive	22.9 ± 3.16	98 ± 1	98 ± 4	66			
6.4 ± 1.55			0.47 ± 0.24	CC(C)(C)c1nc(-c2cccc(NS(=O)(=O)c3c(F)cccc3F)c2F)c(-c2ccnc(N)n2)s1 [Dabrafenib]	Inactive		43 ± 1	26 ± 13		Inactive	26 ± 13	
0.03 ± 0.02		21.1	23.6 ± 8.59	Cc1nc(Nc2ncc(C(=O)Nc3c(C)cccc3Cl)s2)cc(N2CCN(CCO)CC2)n1 [Dasatinib]	Inactive		52 ± 11	46 ± 3	56	Inactive	46 ± 3	Emax (HIF-1α–NanoLuc; [12]): 82%; IC50 (HIF-1α–NanoLuc; [13]): 0.94 µM

From publication PMC4884984, “Identification of approved and investigational drugs that inhibit hypoxia-inducible factor-1 signaling” (Oncotarget, 2016)
